Read-outs that look alike come from different tables or passages of the source.
Legend:
[1] = test system: Dd2 strain; test: P. falciparum proliferation assay; format: cell-based, Plasmodium falciparum; details: Plasmodium falciparum, DD2, 72 h, read-out: IC50 (nM), parasite proliferation, + 1 μM VP; SEM
Experimental: (§1) Parasite proliferation was measured in 96-well plates using a fluorescent DNA-intercalating dye[68],[69]. Synchronous ring-stage parasite cultures (~1% haematocrit and 1% parasitaemia) were incubated with different concentrations of the test compound for 72 h at 37 °C and under reduced O2 conditions. The assay was terminated by freezing and thawing the samples, after which 100 μL of SYBR Safe DNA Gel Stain (Molecular Probes; 0.2 μL/mL) in a lysis buffer (20 mM Tris-HCl, 5 mM EDTA, 0.008% (w/v) saponin and 0.08% (v/v) Triton X-100; pH 7.5) was added to each well. The fluorescence from each well was measured using a Tecan Infinite M1000 PRO microplate reader (excitation wavelength 490 nm; emission wavelength 520 nm). The fluorescence values for the wells containing the highest concentration of the compound were averaged and this value was then subtracted from each of the well values obtained for that 96-well plate. The level of parasite proliferation in the presence of each compound concentration was expressed as a percentage of the proliferation measured in the absence of the compound. The IC50s were determined in SigmaPlot Windows Version 11.0 by a least-squares fit of the equation y = a/[1 + ([compound]/IC50)^c] to the data, where y is the percent parasite proliferation, a is the maximum change in the percent parasite proliferation, and c is a fitted constant. In all cases, five independent experiments were performed (on different days), and within each experiment measurements were averaged from three replicates.

[2] = test system: C4^Dd2 parasites; test: P. falciparum proliferation assay; format: cell-based, Plasmodium falciparum; details: Plasmodium falciparum, DD2, 72 h, read-out: IC50 (nM), parasite proliferation, + 1 μM VP; SEM
Experimental: as §1

[3] = test system: 3D7 strain; test: P. falciparum proliferation assay; format: cell-based, Plasmodium falciparum; details: Plasmodium falciparum, 3D7, 72 h
Experimental: as §1

[4] = test system: 7G8 strain; test: P. falciparum proliferation assay; format: cell-based, Plasmodium falciparum; details: Plasmodium falciparum, 72 h, SEM
Experimental: as §1

[5] = test system: C6^7G8 parasites; test: P. falciparum proliferation assay; format: cell-based, Plasmodium falciparum; details: Plasmodium falciparum
Experimental: as §1

[6] = test system: C2^GC03 parasites; test: P. falciparum proliferation assay; format: cell-based; details: Plasmodium falciparum
Experimental: as §1

[7] = molecular target: T1, PfCRT^7G8 in C6^7G8 parasites (Plasmodium falciparum, UniProt Q8IBZ9, A220S/C72S/I351M/I356L/K76T/N326D); test: P. falciparum H+-efflux assay (rate of DV alkalinisation after concanamycin A); format: cell-based; details: C67G8; test solute 10 μM
T1 construct: PfCRT also functions as a peptide transporter within its native environment of the DV membrane; expressed in transfected cells; host or cells: P. falciparum pfcrt transfectant line C6^7G8 (saponin-isolated trophozoites)
T1 sequence (Q8IBZ9 1-424 C72S/K76T/A220S/N326D/I351M/I356L): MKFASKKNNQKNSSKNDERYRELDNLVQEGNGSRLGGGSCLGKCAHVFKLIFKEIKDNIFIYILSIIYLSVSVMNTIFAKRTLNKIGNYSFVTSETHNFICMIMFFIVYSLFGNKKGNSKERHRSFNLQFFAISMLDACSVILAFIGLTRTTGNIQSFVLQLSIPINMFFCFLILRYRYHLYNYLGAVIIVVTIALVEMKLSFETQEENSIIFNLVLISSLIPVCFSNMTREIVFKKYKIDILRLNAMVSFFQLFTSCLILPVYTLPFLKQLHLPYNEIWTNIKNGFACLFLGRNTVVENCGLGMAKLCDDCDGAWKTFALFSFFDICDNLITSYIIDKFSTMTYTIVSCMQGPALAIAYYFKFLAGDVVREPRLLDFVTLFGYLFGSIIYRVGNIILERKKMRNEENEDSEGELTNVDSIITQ

[8] = molecular target: T2, PfNT1 (Plasmodium falciparum, UniProt Q8IDM6); test: [3H]CQ uptake into Xenopus oocytes (ion and membrane-potential dependence, Supplementary Fig. 2); format: cell-based
T2 construct: expressed in transfected cells; host or cells: Xenopus laevis oocytes (stage V-VI), cRNA-injected

[9] = 72 h, read-out: IC50 (nM), parasite proliferation, + 1 μM VP, SEM

T2 sequence (Q8IDM6 whole entry): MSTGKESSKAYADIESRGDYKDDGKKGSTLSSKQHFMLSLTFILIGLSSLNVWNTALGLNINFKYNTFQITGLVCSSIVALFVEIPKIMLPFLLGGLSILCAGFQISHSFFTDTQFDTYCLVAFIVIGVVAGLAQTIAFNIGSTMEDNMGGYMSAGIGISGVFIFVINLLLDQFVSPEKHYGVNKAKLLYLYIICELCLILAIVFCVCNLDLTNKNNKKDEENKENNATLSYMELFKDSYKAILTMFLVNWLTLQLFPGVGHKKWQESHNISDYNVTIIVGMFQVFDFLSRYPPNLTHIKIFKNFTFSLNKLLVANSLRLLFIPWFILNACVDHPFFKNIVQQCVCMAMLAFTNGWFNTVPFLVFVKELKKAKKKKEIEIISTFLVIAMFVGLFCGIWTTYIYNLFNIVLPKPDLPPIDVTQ

Compound `CCN(CC)CCCC(C)Nc1ccnc2cc(Cl)ccc12` (centres unmarked) [CQ, chloroquine, reference compound] has an IC50 [1] of 25 ± 1 nM, an IC50 [2] of 26 ± 0.1 nM and an IC50 ([3]; 37 °C, SYBR Safe, mean ± SEM, n = 5, read-out: IC50 (nM), parasite proliferation, Control) of 25 ± 1.1 nM. It also gave an IC50 ([3]; read-out: IC50 (nM), parasite proliferation, + 1 μM VP, SEM) of 24 ± 0.9 nM, an IC50 ([4]; read-out: IC50 (nM), parasite proliferation, + 1 μM VP) of 28 ± 1.6 nM and an IC50 ([4]; read-out: IC50 (nM), parasite proliferation, Control) of 94 ± 4.4 nM. For the same compound, the IC50 [5, 9] was 25 ± 0.2 nM, the IC50 ([5]; C67G8, 72 h, 37 °C, SYBR Safe, mean ± SEM, n = 5, read-out: IC50 (nM), parasite proliferation, Control) was 87 ± 2.1 nM and the IC50 [6, 9] was 26 ± 1.3 nM. The IC50 ([6]; C2GC03, 72 h, 37 °C, SYBR Safe, mean ± SEM, n = 5, read-out: IC50 (nM), parasite proliferation, Control) was 27 ± 1.6 nM, the “Effect on rate of DV alkalinisation / H+ leak (in words)” value [7] was “increase” and the “[3H]CQ transport, PfNT1” value ([8]; 0 mM Ca2+, Experiment 1) was 3.03 % PfCRTDd2 control. For the same compound, the “[3H]CQ transport, PfNT1” value ([8]; 0 mM Ca2+, Experiment 2) was 3.55 % PfCRTDd2 control, the “[3H]CQ transport, PfNT1” value ([8]; 0 mM Ca2+, Experiment 3) was 3.65 % PfCRTDd2 control and the “[3H]CQ transport, PfNT1” value ([8]; 0 mM Ca2+, Experiment 4) was 3.28 % PfCRTDd2 control. The “[3H]CQ transport, PfNT1” value ([8]; 0 mM Cl-, Experiment 1) was 3.68 % PfCRTDd2 control, the “[3H]CQ transport, PfNT1” value ([8]; 0 mM Cl-, Experiment 2) was 3.72 % PfCRTDd2 control and the “[3H]CQ transport, PfNT1” value ([8]; 0 mM Cl-, Experiment 3) was 4.16 % PfCRTDd2 control. For the same compound, the “[3H]CQ transport, PfNT1” value ([8]; 0 mM Cl-, Experiment 4) was 3.75 % PfCRTDd2 control, the “[3H]CQ transport, PfNT1” value ([8]; 0 mM Na+, Experiment 1) was 3.67 % PfCRTDd2 control and the “[3H]CQ transport, PfNT1” value ([8]; 0 mM Na+, Experiment 2) was 3.32 % PfCRTDd2 control. The “[3H]CQ transport, PfNT1” value ([8]; 0 mM Na+, Experiment 3) was 3.62 % PfCRTDd2 control, the “[3H]CQ transport, PfNT1” value ([8]; 0 mM Na+, Experiment 4) was 3.15 % PfCRTDd2 control and the “[3H]CQ transport, PfNT1” value ([8]; 1 mM Ca2+, Experiment 1) was 4.25 % PfCRTDd2 control. The “[3H]CQ transport, PfNT1” value ([8]; 1 mM Ca2+, Experiment 2) was 3.56 % PfCRTDd2 control, the “[3H]CQ transport, PfNT1” value ([8]; 1 mM Ca2+, Experiment 3) was 3.56 % PfCRTDd2 control and the “[3H]CQ transport, PfNT1” value ([8]; 1 mM Ca2+, Experiment 4) was 4.24 % PfCRTDd2 control. For the same compound, the “[3H]CQ transport, PfNT1” value ([8]; 3 mM Ca2+, Experiment 1) was 3.29 % PfCRTDd2 control, the “[3H]CQ transport, PfNT1” value ([8]; 3 mM Ca2+, Experiment 2) was 3.28 % PfCRTDd2 control and the “[3H]CQ transport, PfNT1” value ([8]; 3 mM Ca2+, Experiment 3) was 3.36 % PfCRTDd2 control. For the same compound, the “[3H]CQ transport, PfNT1” value ([8]; 3 mM Ca2+, Experiment 4) was 3.62 % PfCRTDd2 control, the “[3H]CQ transport, PfNT1” value ([8]; 5 mM Ca2+, Experiment 1) was 3.95 % PfCRTDd2 control and the “[3H]CQ transport, PfNT1” value ([8]; 5 mM Ca2+, Experiment 2) was 3.75 % PfCRTDd2 control. The “[3H]CQ transport, PfNT1” value ([8]; 5 mM Ca2+, Experiment 3) was 3.96 % PfCRTDd2 control and the “[3H]CQ transport, PfNT1” value ([8]; 5 mM Ca2+, Experiment 4) was 3.37 % PfCRTDd2 control.

— article PMC7413254 (Nature Communications, 2020)
